Source: US8296071B2, “Methods for uniformly treating biological samples with electromagnetic radiation” (Terumo BCT Biotechnologies, LLC, priority 2004, dated 2012)

Experiments:
[1] = tested on: porcine parvovirus virus (PPV); assay: Pathogen reduction of PPV in platelet and plasma-containing samples at two agitation rates; details: net radiant energy by Equation V
Protocol: Platelet and plasma-containing fluid samples having volumes selected over the range of about 200 ml to about 400 ml were illuminated in 1 liter fixed volume, partially transparent containers.
Electromagnetic radiation was provided by two banks of six mercury vapor fluorescent lamps (model number XG25T8E; distributed by Ushio Nichia NP-803 phosphor) positioned above and below the fluid containers. This optical geometry defines two photoreactive layers having thicknesses equal to approximately 1 millimeter corresponding to the top and bottom illuminated surfaces of the fluid. […]
Bovine viral diarrhea virus (BVDV), porcine parvovirus virus (PPV), hepatitis A virus (HAV) and S. aureus bacteria were assayed before and after illumination using TCID50 or plating methods to provide quantitative measurements of the extent of pathogen reduction achieved.
The effect of agitation rate on the extent of pathogen reduction achieved upon treatment of fluids with electromagnetic radiation was also studied by varying the agitation rate provided to the sample container during illumination. Platelet and plasma-containing samples were exposed to net radiant energies calculated using Equation V. Samples were mixed during illumination using two different agitation rates: 120 cycles per minute and 20 cycles per minute.

[2] = tested on: Bovine viral diarrhea virus (BVDV); assay: Pathogen reduction of BVDV in platelet and plasma-containing fluids (photosensitizer + electromagnetic radiation), TCID50; format: cell-based; details: fixed net radiant energy 3 Joules cm^−2
Text: FIG. 4A provides a bar graph showing the average reduction of BVDV pathogen for fluid samples having two different volumes held in containers having nontransmissive labels and exposed to a fixed net radiant energy. […] FIG. 4B provides a bar graph showing the average reduction of BVDV pathogen for fluid samples having two different volumes held in containers not having nontransmissive labels and exposed to a fixed net radiant energy equal to 3 Joules cm^−2. […] The error bars shown in FIGS. 4A and 4B correspond to standard deviations (1σ) corresponding to six independent measurements at each volume.

7,8-dimethyl-10-ribityl isoalloxazine was tested, and the “log decrease in the biological activity of PPV pathogens” value ([1]; agitation rate 20 cycles per minute) was 0.72 log, the “log decrease in the biological activity of PPV pathogens” value ([1]; agitation rate 120 cycles per minute) was 4.65 log and the “average reduction of BVDV pathogen” value ([2]; about 230 ml sample, containers with nontransmissive labels) was “about 2.0 log”. The “average reduction of BVDV pathogen” value ([2]; about 230 ml sample, containers without nontransmissive labels) was “about 2.3 log”, the “average reduction of BVDV pathogen” value ([2]; about 280 ml sample, containers with nontransmissive labels) was “about 1.4 log” and the “average reduction of BVDV pathogen” value ([2]; about 280 ml sample, containers without nontransmissive labels) was “about 1.9 log”.
